In patent US20090012179A1, “Use of Tyrphostins to Stimulate Neurite Outgrowth” (priority 2004, published 2009):
“Also recorded” adds a separate entry of the source.

What was measured:
[1] = tested on: ERK; assay: ERK activation in the brain; type: in vivo; conditions: observation, no data shown
[2] = tested on: ERK2 (p42); assay: ERK2 (p42) activation in NS20Y cells; type: cell-based, mouse
Description: (§1) Cell stimulation, immunoblotting, and immunoprecipitation: Cells or neurons are grown in 6-well or 12-well plates to 80-90% confluence. The cells are starved in serum-free DMEM overnight, and then incubated with receptor agonists at 37° C. for the indicated durations. In some experiments, signaling inhibitors are added 45 minutes before simulation. Incubation is terminated by placing the tissue culture cluster on ice and rapidly aspirating the medium, followed by the addition of ice-cold RIPA^+ buffer (50 mM Tris-HCl, pH 7.5, 150 mM NaCl, 1% NP-40, 0.5% deoxycholate, 0.1% SDS, 1 mM NaVO3, and protease inhibitor (Calbiochem, San Diego, Calif.)) and incubation for 15 minutes with shaking. After centrifugation (14,000×g at 4° C. for 15 minutes), the supernatant is collected and the protein concentration is measured and adjusted using RIPA^+ buffer. Samples (30 μl) with equal amounts of protein mixed with Laemmli loading buffer are denatured at 70° C. for 10 minutes and separated by SDS-PAGE. […] The proteins are transferred to PVDF membrane (Millipore), detected with the primary antibodies (including anti-active ERK; anti-p-Tyr clone 4G10, Upstate; anti-TH; anti-DAT, sigma, anti-β-tubulin, etc.) and visualized with the SuperSignal™ West Pico chemiluminescent kit (Pierce Biotechnology, Rockford, Ill.). The intensity of bands is quantified using ImageQuant™ 5.2 (Amersham). […]

[3] = tested on: ERK; assay: ERK phosphorylation in primary rat SNc dopaminergic neurons, p-ERK staining; type: cell-based; conditions: primary rat SNc neuron culture, A9 1 μM, 1 hour
Description: Primary cultures of rat embryonic SNc neurons were stimulated with vehicle (NT) or A9 (1 μM) for 1 hour and then stained for tyrosine hydroxylase (TH) and phospho-ERK (p-ERK). Images were digitally captured with an Olympus CX640 fluorescence microscope.
Primary Neuronal Cultures: The substantia nigra or striatal region is dissected from 4 day-old Sprague-Dawley rats and incubated in minimum essential medium (MEM) containing 20 U/ml papain for 2 hours at 37° C. The tissue is then triturated using fire-polished Pasteur pipettes in MEM supplemented with 10% fetal bovine serum, 0.45% glucose, […] insulin, 0.5 mM glutamine, 100 U/ml penicillin, and 100 μg/ml streptomycin. Cells are plated on 18 mm diameter poly-D-lysine-coated glass coverslips (Fisher 12-545-84 18cir-1D) at a density of 75,000 cells per coverslip for immunofluorescence imaging or in 12-well or 6-well tissue culture plates for immunoblotting studies. […]
Cell preparation for microscopy: Neuroblastoma cells and rat striatal neurons are grown on glass coverslips and treated with poly-D-Lysine. […] The samples are examined by an Olympus CX640 fluorescence microscope, or scanned with a Leica TCS SP confocal laser scanning microscope. Images are digitally captured and recorded with computer. […]

[4] = tested on: ERK1 (p44); assay: ERK1 (p44) activation in NS20Y cells; type: cell-based, mouse
Description: as §1

[5] = tested on: SJL mice with EAE; assay: Axonal damage in SJL mice with EAE, SMI312/SMI32 immunohistochemistry of spinal cord; type: in vivo, mouse
Description: A9 (or the vehicle control) was administered orally.
Following treatment, the thoracic spinal cords were fixed in 4% PFA, embodied in paraffin and sectioned for IHC.

[6] = tested on: ERK; assay: ERK activation in SH-SY5Y cells; type: cell-based, human
Description: SH-SY5Y cells are treated with A9, NGF ([…]), or EGF (10 ng/ml) for different durations, including 5, 15, 30, 60, and 120 minutes, to generate time-response curves for A9, NGF, and EGF. The level of ERK activation is measured by immunoblotting for the active (phosphorylated) ERK. The time-point with the maximum ERK response determined above is chosen for immunoprecipitation studies to assess the activation of PI3K, PDK1, and PKB/Akt. Cells are lysed with RIPA^+ buffer and precipitated with polyclonal antibodies for PI3K, PDK1, and PKB/Akt, and then the presence of p-Tyr in the precipitates will be determined by immunoblotting with the specific p-Tyr monoclonal antibody 4G10 (Upstate).

[7] = tested on: ERK; assay: ERK activation in HEK293 cells; type: cell-based, human
Description: as §1, with “buffer.” for “buffer. Samples (30 μl) with equal amounts of protein mixed with Laemmli loading buffer are denatured at 70° C. for 10 minutes and separated by SDS-PAGE.”
It was determined that A9 could activate ERK while characterizing the transactivation of receptor tyrosine kinases by the dopamine D2 receptor.

CC(C)(C)c1cc(C=C(C#N)C#N)cc(C(C)(C)C)c1O [A9, tyrphostin A9]
ERK activation in the brain [1]: can cause ERK activation in the brain
ERK2 (p42) stimulation [2]: little stimulation on ERK2 (p42); also recorded: little effect on ERK2
ERK phosphorylation/activation in dopaminergic neurons [3]: induced robust ERK activation
ERK phosphorylation/activation in dopaminergic neurons ([3]; listed as tyrphostin A9): induced ERK phosphorylation
ERK1 (p44) activation [4]: activated ERK1 (p44) the most
Damaged axons, SMI32 staining ([5]; SJL mice with EAE, 1 μg A9 orally): effectively reduced; also recorded: reduces the presence of damaged axons
Axonal damage in the spinal cord ([5]; SJL mice, EAE induced with PLP139-151, 1 μg A9 orally): reduced the axonal damage
Ability to cross the blood brain barrier ([5]; after oral administration, inferred from CNS effect in EAE mice): has the ability to cross the blood brain barrier
ERK activation in SH-SY5Y, indicated by use of MEK inhibitor PD98059 [6]: ERK is activated
ERK activation [7]: but not in HEK293
D2 receptor-induced activation of ERK ([7]; A9 pretreatment): prevented D2 receptor-induced activation of ERK
